Measurements published in patent US11541032B2, “Composition containing sumo inhibitor and application” (CHINA PHARMACEUTICAL UNIVERSITY, priority 2018, dated 2023).

Assays:
Assay type in all cases: cell-based, Rat
[1] = system: FXR signaling pathway; test: RT-PCR of FXR target gene Shp mRNA in quiescent and TGF-β-activated HSC-T6 cells; conditions: for mRNA expression of Shp: activated HSCs, in the presence of SUMO inhibitor SP; for mRNA level of Shp: activated state (TGF-β1 incubation) HSC-T6 cells; for mRNA level of Shp / mRNA level of Shp, an FXR target gene: agonist 5 μM, 12 h; for mRNA level of Shp, an FXR target gene: quiescent HSC-T6 cells
Description: (§1) HSC-T6 cells, seeded and cultured in a proper density, were treated with TGF-β([…]) or OCA (5 μM) or GW40064 (5 μM) or WAY-362450 (5 μM) for 12 h before collection.
1) After the cells were cleaned by PBS, 800 μl of a Trizol reagent was added. After repeated blowing by a pipette, the cells were transferred into an EP tube to be subjected to still standing for 5 min at the room temperature.
2) 160 μl of chloroform was added, and violent oscillation was performed for 15 sec. After still standing for 5 min at the room temperature, 12000 g centrifugation was performed for 15 min. The sample was divided into three layers including a bottom layer being a yellow organic phase, an upper layer being a colorless water phase, and a middle layer.
3) 300 μl of the upper layer water phase was carefully transferred into a new tube. 300 μl of isopropanol was added. After uniform mixing through reversing, still standing was performed for 10 min at the room temperature. Then, 12000 g centrifugation was performed for 10 min. Supernatant was abandoned.
4) RNA precipitates were washed by 1.0 ml of precooled 75% ethanol. Then, 12000 g centrifugation was performed for 5 min. Supernatant was abandoned to obtain total RNA. Redissolution was performed by 10 μl of DEPC water. After quantification, dilution was performed to 0.5 μg/μl.
(§2) RNA solutions and kit components were prepared into a system with a total volume of 20 μl according to a system proportion required in the specification, and a program temperature was set for reverse transcription.
Stage 1: reverse transcription at 37° C. for 15 min.
Stage 2: denaturation at 85° C. for 5 s.
Stage 1: initial denaturation at 95° C. for 1 min.
(§3) Stage 2: PCR reaction at 95° C. for 15 sec; for example, at 60° C. for 30 sec for 40 Cycles; and at 72° C. for 30 sec.
Stage 3: dissociation curve analysis at 65 to 95° C., 0.5° C./5s.
(§4) Specific methods were the same as those in section 2.1 in Embodiment 1.
(§5) Specific methods were the same as those in section 2.2 in Embodiment 1.

[2] = system: activated HSCs (HSC-T6 cells); test: RT-PCR of fibrotic-related gene Acta2 mRNA in activated HSCs; conditions: after administration of SP
Description: as §1, §2, §3, §4, §5

[3] = system: FXR proteins; test: SUMOylation ELISA of FXR proteins in activated HSCs
Description: as §1
After cell nuclear proteins were extracted according to specification requirements of an ELISA detection kit, primary antibodies and nuclear proteins of a cell sample were incubated for 60 min at the room temperature in a plate hole. SUMO specific detection antibodies were then supplemented and added according to the specification requirements. A color sensitizer was further added for color development. Then, absorbance at 655 nm was fast read. Relative quantitative analysis was performed.
as §4
Specific methods were the same as those in section 2.3 in Embodiment 1.

Compound | mRNA expression of Shp [1] | mRNA level of Shp [1] | mRNA level of Shp, an FXR target gene [1] | expression of fibrotic-related gene Acta2 [2] | SUMOylation level of FXR proteins [3]
CC(C)OC(=O)C1=CN(C(=O)c2ccc(F)c(F)c2)CC(C)(C)c2c1[nH]c1ccccc21 [WAY-362450] | significantly up-regulated | none of the FXR agonists OCA, GW4064 and WAY-362450 could significantly up-regulate | could significantly up-regulate | significantly reduced | –
ginkgolic acid [GA] | – | – | – | – | could significantly reduce
CC(C)c1onc(-c2c(Cl)cccc2Cl)c1COc1ccc(/C=C/c2cccc(C(=O)O)c2)c(Cl)c1 [GW4064] | significantly up-regulated | none of the FXR agonists OCA, GW4064 and WAY-362450 could significantly up-regulate | could significantly up-regulate | significantly reduced | –
CN[C@@H]1[C@H](O)[C@H](NC)[C@H]2O[C@@]3(O)C(=O)C[C@@H](C)O[C@H]3O[C@@H]2[C@H]1O [SP, spectinomycin] | – | – | – | – | could significantly reduce
